In patent US11484529B2, “Desmethylanethole trithione derivatives for the treatment of diseases linked to mitochondrial reactive oxygen species (ROS) production” (OP2 Drugs, priority 2017, dated 2022):

What was measured:
H460 carcinoma cells = test: Transwell cell migration (metastatic activity); assay type: cell-based, human; settings: AOX 5 and 10 μM, 16 hours
Description: Cell migration assays were performed in Transwells (Corning Inc., 8.0-μm pore size). For migration assay, 2·10^4 cells in serum-free medium were added to the upper wells. Media containing 10% FBS were added to the lower wells. Cells that migrated through the filter after 16 hours were stained with 0.2% crystal violet and counted using the software Image J.
The Transwell test of cell migration has been utilized for this assay and the migration of H460 carcinoma cells has been measured in the presence of two different concentrations of AOX (5 and 10 μM) and compared to the effect of 100 μM N-acetyl cystein (NAC) as a positive control of cytosolic ROS production (FIG. 25).

[1] = tested on: retina (outer nuclear layer); test: Progressive light-induced retinal degeneration; assay type: in vivo, rat; settings: 6 mg/kg/day, three times a day, 7 days
Description: Rats bred under cyclic low-intensity lighting were transferred to cyclic high-intensity lighting for one week and divided into 3 groups (non-treated animals, vehicle-treated animals and AOL-treated animals). Treated animals received injections of vehicle or AOL at a dose of 6 mg/kg/day, three times a day for the 7 days of the transfer (30 minutes before light-ON; at […]). After one week, animals were transferred in the dark (D0).
A control group (“untransferred”) was not transferred to cyclic high-intensity lighting but received the same treatment as described above: injections of vehicle or AOL three times a day for 7 days, followed by a transfer in the dark (D0).
Animals were then sacrificed for histological analysis.

[2] = tested on: diet-induced obese (DIO) mice; test: Chronic treatment in diet-induced obese mice (body weight, body composition, ITT, glucose); assay type: in vivo, mouse; settings: for AUC of glucose during ITT: mean±SEM, vehicle 12812.50±750.35
Description: The aim of the study was to determine whether the compound AOL, administered daily at the doses of 5 mg/kg and 10 mg/kg for up to five weeks by intraperitoneal (i.p.) daily administration in diet-induced obese (DIO) mice fed with a high-fat diet (HFD), modifies food intake, body weight, adiposity and glucose metabolism.
Mice were fed ad libitum with a HFD (60% of calories from fat, mostly lard) for twelve weeks before the pharmacological study begun. Animals received AOL or its vehicle by intraperitoneal (i.p.) administration and were maintained on HFD for the length of the study. Food intake and body weight were measured daily and recorded for up to three consecutive weeks.
Thirty 7-weeks-old male C57/B16J mice arrived to the laboratory on 25 Feb. 2016 and underwent a first in vivo body composition analysis (Echo MRI 900, EchoMRI Systems) after 1 week of adaptation to the experimental housing room. After this first MRI analysis, animals were fed a high-fat diet (HFD) ad libitum for a period of twelve weeks. Thereafter, they underwent a second MRI analysis and were distributed into 3 experimental groups of equivalent body weight and body composition.
Once the pharmacological treatment started (day 1), food intake (FI) and body weight (BW) were measured daily before the dark phase in animals housed in their home cage. Spillage of food was checked daily. The food consumed was calculated by subtracting the food left in the hoppers from the initial pre-weighted amount. FI and BW were measured for three consecutive weeks. Afterwards animals underwent a third MRI analysis in order to observe potential effects of the treatment onto the body composition (changes in fat and lean mass), followed by a glucose tolerance test (GTT) and an insulin tolerance test (ITT). Mice received daily i.p. administration of AOL or its vehicle for a total length of five weeks, until they were sacrificed.
A nuclear echo magnetic resonance imaging whole-body composition analyzer (Echo MRI 900; EchoMedical Systems) was used to repeatedly assess body fat and lean mass in conscious mice.
Animals were injected i.p. with 1.5 g/kg of D-Glucose (Sigma-Aldrich) for the GTT or with 0.5 U/kg of insulin (Humulin, Lilly, France) for the ITT. For the GTT and the ITT, animals were fasted overnight. The tests were conducted the following morning. Blood samples were taken from the tail vein at different time points (0, 15, 30, 60, 90 and 120 minutes after the i.p. administration of glucose or insulin) and glucose concentration was measured using glucose sticks (OneTouch Vita, Lifescan France, Issy les Moulineaux, France).
At sacrifice, blood samples were collected, blood glucose was rapidly assessed using glucose sticks and blood samples were then centrifuged at 3000 rpm for 15 minutes. The obtained plasma was stored at −80° C. for subsequent measurement of insulin, which was carried out by performing an ELISA (kit from Mercodia, Uppsala, Sweden), according to the manufacturer's instructions.

[3] = cited from earlier work
[4] = tested on: chronic hypoxic rats and monocrotaline-treated rats; test: Pulmonary hypertension rat models (chronic hypoxia, monocrotaline); assay type: in vivo
Description: Male Wistar rats (300-400 g) were separated into 3 groups and used 4 weeks later: • the first group (control or normoxic rats—N rats) was housed in ambient room air; • the second group (chronic hypoxic rats—CH rats) was exposed to chronic hypoxia for 3 weeks in a hypobaric chamber (50 kPa); and • the third group (MCT rats) was injected with a single intraperitoneal dose of monocrotaline at a dose of 60 mg/kg. MCT (Sigma, St Quentin Fallavier, France) was dissolved in an equal volume of HCl (1 M) and NaOH (1 M).
In each group, some animals were treated with AOL (Sulfarlem, EG Labo Eurogenerics. Crushed tablets mixed with food, fed ad libitum) and some other animals were untreated. Eaten food was weighed every day to estimate the AOL dose administered. 10 mg/kg/day was thus administered during the 3 weeks of experiment for the second and third groups.
Pulmonary hypertension was assessed by measuring both the mean pulmonary arterial pressure (mPAP) and right ventricle hypertrophy. To measure PAP, N, CH and MCT rats were anesthetized with pentobarbital sodium (Centravet) by intraperitoneal injection (60 mg/kg) and mPAP was measured, in closed-chest rats, through a catheter inserted in the right jugular vein, then through the right atria and the right ventricle into the pulmonary artery, and attached to a Baxter Uniflow gauge pressure transducer. Right ventricle hypertrophy was estimated by the ratio of right ventricle (RV) to left ventricle plus septum (LV+S) weight (Fulton index).
Pulmonary arteries (PA) remodeling was assessed by measuring the percentage of the PA medial thickness from sections of paraffin-embedded lung. Lung sections were first stained with hematoxylin and eosin (VWR) according to common histological procedure.

Row | SMILES | metastatic activity (cells crossing the membrane) (H460 carcinoma cells) | thickness of the outer nuclear layer (ONL) ([1]; transferred to cyclic high-intensity lighting) | thickness of the outer nuclear layer (ONL) ([1]; untransferred control group) | effect on body weight ([2]; 5 and 10 mg/kg i.p. daily, HFD, three weeks) | AUC of glucose during ITT ([2]; AOL 5 mg/kg) | action of insulin on circulating glucose levels during an ITT ([2]; AOL 10 mg/kg) | AUC of glucose during ITT ([2]; AOL 10 mg/kg) | blood glucose levels ([2]; after five weeks of treatment, 2-hour fasted mice) | lean mass ([2]; after three weeks of chronic administration) | fat mass ([2]; after three weeks of chronic administration, p=0.13) | body weight and food intake ([2]; chronic daily administration, data not shown) | bioavailability [3] | Fulton index (right ventricular hypertrophy) ([4]; 10 mg/kg/day in food) | reduction of pulmonary arteries diameter (PA remodeling) ([4]; CH rats, 10 mg/kg/day) [%] | mean pulmonary arterial pressure ([4]; MCT rats, 10 mg/kg/day in food, 3 weeks) | mean pulmonary arterial pressure ([4]; normoxic (N) rats)
1 | Oc1ccc(-c2cc(=S)ss2)cc1 [AOX, 5-(4-hydroxyphenyl)-3H-1,2-dithiole-3-thione] | absence of induction of metastatic activity |  |  |  |  |  |  |  |  |  |  |  |  |  |  | 
2 | COc1ccc(-c2cc(=S)ss2)cc1 [AOL, 5-(4-methoxyphenyl)-3H-1,2-dithiole-3-thione] |  | significant increase of the thickness of the ONL | no effect on ONL's thickness | did not have a significant effect | 15006.56±1139.69 | significantly blunted the action of insulin | 18168.33±1562.90 | tended to decrease blood glucose levels | did not have any effect on lean mass | tended to reduce fat mass | tended to decrease body weight and food intake | known to be very short | no effect on the Fulton index | 30 | decreased in MCT rats | no significant effect on the control group
